One experiment addresses Carbonic anhydrase 9 (Homo sapiens, UniProt Q16790). The experiment is described as follows: Inhibition of recombinant human carbonic anhydrase 9 preincubated with enzyme for 15 mins by phenol red dye based stopped flow CO2 hydration assay.
For the next experiment, the target named is Carbonic anhydrase 12 (Homo sapiens, UniProt O43570). The experiment is described as follows: Inhibition of recombinant human carbonic anhydrase 12 preincubated with enzyme for 15 mins by phenol red dye based stopped flow CO2 hydration assay.
Carbonic anhydrase 12, sequence (O43570 whole entry): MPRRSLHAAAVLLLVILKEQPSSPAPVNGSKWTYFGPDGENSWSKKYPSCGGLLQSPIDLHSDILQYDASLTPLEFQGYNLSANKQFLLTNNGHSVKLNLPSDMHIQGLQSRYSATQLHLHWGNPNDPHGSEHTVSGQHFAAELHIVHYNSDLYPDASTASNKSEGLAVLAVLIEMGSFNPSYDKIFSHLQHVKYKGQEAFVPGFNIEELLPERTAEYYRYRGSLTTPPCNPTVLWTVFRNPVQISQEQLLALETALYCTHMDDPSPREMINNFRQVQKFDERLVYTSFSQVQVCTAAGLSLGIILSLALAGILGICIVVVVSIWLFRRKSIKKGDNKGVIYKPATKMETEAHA
Another experiment deals with Carbonic anhydrase 7 (Homo sapiens, UniProt P43166). The experiment is described as follows: Inhibition of recombinant human carbonic anhydrase 7 preincubated with enzyme for 15 mins by phenol red dye based stopped flow CO2 hydration assay.
Carbonic anhydrase 7, sequence (P43166 whole entry): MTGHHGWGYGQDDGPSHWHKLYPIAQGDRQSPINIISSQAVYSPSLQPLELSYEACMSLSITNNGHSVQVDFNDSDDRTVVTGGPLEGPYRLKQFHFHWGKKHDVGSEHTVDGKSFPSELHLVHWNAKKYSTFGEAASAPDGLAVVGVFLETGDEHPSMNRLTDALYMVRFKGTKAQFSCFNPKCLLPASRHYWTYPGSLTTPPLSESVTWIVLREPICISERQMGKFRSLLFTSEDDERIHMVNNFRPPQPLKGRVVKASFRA
The target of a further experiment is Carbonic anhydrase 2 (Homo sapiens, UniProt P00918). The experiment is described as follows: Inhibition of recombinant human carbonic anhydrase 2 preincubated with enzyme for 15 mins by phenol red dye based stopped flow CO2 hydration assay.
The target in a further experiment is Carbonic anhydrase 1 (Homo sapiens, UniProt P00915). Put plainly: Inhibition of recombinant human carbonic anhydrase 1 preincubated with enzyme for 15 mins by phenol red dye based stopped flow CO2 hydration assay.
Carbonic anhydrase 1, sequence (P00915 whole entry): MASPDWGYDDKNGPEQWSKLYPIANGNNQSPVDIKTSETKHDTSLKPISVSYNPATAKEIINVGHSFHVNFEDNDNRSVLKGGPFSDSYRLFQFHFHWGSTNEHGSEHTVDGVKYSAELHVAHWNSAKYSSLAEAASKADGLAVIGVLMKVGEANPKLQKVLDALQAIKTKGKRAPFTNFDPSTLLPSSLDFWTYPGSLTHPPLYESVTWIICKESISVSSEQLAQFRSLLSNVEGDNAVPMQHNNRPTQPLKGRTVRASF

The structures appear in SMILES notation.

This is an account of results in ChEMBL document CHEMBL4613287, “Glycomimetic Based Approach toward Selective Carbonic Anhydrase Inhibitors” (ACS Med Chem Lett, 2020).

`CC1(C)O[C@H]2[C@H](O)CN(CCCCCCn3cc(CNc4ccc(S(N)(=O)=O)cc4)nn3)C[C@H]2O1`: the inhibition constant (Ki) amounted to 2980 nM on Carbonic anhydrase 9; 541 nM at Carbonic anhydrase 12; 7.4 nM on Carbonic anhydrase 7; 80.3 nM on Carbonic anhydrase 2; 2880 nM on Carbonic anhydrase 1.
For the molecule `CC1(C)O[C@H]2[C@H](O)[C@H]([C@H]3[C@H](O)[C@H]4OC[C@@H](O4)[C@H]3O)N(CCCCCCn3cc(CNc4ccc(S(N)(=O)=O)cc4)nn3)C[C@H]2O1`, the Ki was determined as 35.9 nM on Carbonic anhydrase 9; 770 nM at Carbonic anhydrase 12; 31.2 nM on Carbonic anhydrase 7; 801 nM on Carbonic anhydrase 2; 956 nM at Carbonic anhydrase 1.

By Ki is commonly meant a dissociation constant, usually derived from enzyme kinetics or from competition with a known ligand.
